ChEMBL document CHEMBL6092222 (J Med Chem, 2024)
≈ marks a conversion by molar mass, not a printed value.

Columns and labels:
[1] = Chemical stability of compound in 0.1 M HCl at pH 1 at 37 degreeC assessed as half life measured for 24 hrs by reversed phase-HPLC analysis; type: physicochemical
[2] = physchem; conditions: aqueous buffer, pH 1
Description: Solubility of compound in aqueous buffer at pH 1 at 25 degreeC by reversed phase-HPLC analysis

[3] = physchem; conditions: aqueous buffer, pH 6.5
Description: Solubility of compound in aqueous buffer at pH 6.5 at 25 degreeC by reversed phase-HPLC analysis

[4] = Chemical stability of compound in phosphate buffer at pH 6.5 at 37 degreeC assessed as half life measured for 24 hrs by reversed phase-HPLC analysis; type: physicochemical
[5] = Chemical stability of compound in acetate buffer at pH 4 at 37 degreeC assessed as half life measured for 24 hrs by reversed phase-HPLC analysis; type: physicochemical
[6] = physchem; conditions: aqueous buffer, pH 4
Description: Solubility of compound in aqueous buffer at pH 4 at 25 degreeC by reversed phase-HPLC analysis

[7] = Prodrug conversion in Famotidine-pretreated Sprague-Dawley rat assessed as AUC (total) of 6-(cyclopropanecarboxamido)-4-((2-methoxy-3-(2-methyl-2H-tetrazol-5-yl)phenyl)amino)-N-(methyl-d3)nicotinamide metabolite at 10 mg/kg, po measured for 24 hrs by UPLC-MS/MS analysis; type: ADME, organism-based; conditions: in vivo
[8] = Prodrug conversion in Famotidine-pretreated Sprague-Dawley rat assessed as Tmax of 6-(cyclopropanecarboxamido)-4-((2-methoxy-3-(2-methyl-2H-tetrazol-5-yl)phenyl)amino)-N-(methyl-d3)nicotinamide metabolite at 10 mg/kg, po measured for 24 hrs by UPLC-MS/MS analysis; type: ADME, organism-based; conditions: in vivo
[9] = Prodrug conversion in Pentagastrine-pretreated Sprague-Dawley rat assessed as Tmax of 6-(cyclopropanecarboxamido)-4-((2-methoxy-3-(2-methyl-2H-tetrazol-5-yl)phenyl)amino)-N-(methyl-d3)nicotinamide metabolite at 10 mg/kg, po measured for 24 hrs by UPLC-MS/MS analysis; type: ADME, organism-based; conditions: in vivo
[10] = Prodrug conversion in Famotidine-pretreated Sprague-Dawley rat assessed as Cmax of 6-(cyclopropanecarboxamido)-4-((2-methoxy-3-(2-methyl-2H-tetrazol-5-yl)phenyl)amino)-N-(methyl-d3)nicotinamide metabolite at 10 mg/kg, po measured for 24 hrs by UPLC-MS/MS analysis; type: ADME, organism-based; conditions: in vivo
[11] = Prodrug conversion in Pentagastrine-pretreated Sprague-Dawley rat assessed as Cmax of 6-(cyclopropanecarboxamido)-4-((2-methoxy-3-(2-methyl-2H-tetrazol-5-yl)phenyl)amino)-N-(methyl-d3)nicotinamide metabolite at 10 mg/kg, po measured for 24 hrs by UPLC-MS/MS analysis; type: ADME, organism-based; conditions: in vivo
[12] = Prodrug conversion in Pentagastrine-pretreated Sprague-Dawley rat assessed as AUC (total) of 6-(cyclopropanecarboxamido)-4-((2-methoxy-3-(2-methyl-2H-tetrazol-5-yl)phenyl)amino)-N-(methyl-d3)nicotinamide metabolite at 10 mg/kg, po measured for 24 hrs by UPLC-MS/MS analysis; type: ADME, organism-based; conditions: in vivo
[13] = AUC (total) in Famotidine-pretreated Sprague-Dawley rat at 10 mg/kg, po measured for 24 hrs by UPLC-MS/MS analysis; type: ADME, organism-based; conditions: in vivo
[14] = AUC (total) in Pentagastrine-pretreated Sprague-Dawley rat at 10 mg/kg, po measured for 24 hrs by UPLC-MS/MS analysis; type: ADME, organism-based; conditions: in vivo
[15] = Tmax in Famotidine-pretreated Sprague-Dawley rat at 10 mg/kg, po measured for 24 hrs by UPLC-MS/MS analysis; type: ADME, organism-based; conditions: in vivo
[16] = Cmax in Pentagastrine-pretreated Sprague-Dawley rat at 10 mg/kg, po measured for 24 hrs by UPLC-MS/MS analysis; type: ADME, organism-based; conditions: in vivo
[17] = Cmax in Famotidine-pretreated Sprague-Dawley rat at 10 mg/kg, po measured for 24 hrs by UPLC-MS/MS analysis; type: ADME, organism-based; conditions: in vivo
[18] = Tmax in Pentagastrine-pretreated Sprague-Dawley rat at 10 mg/kg, po measured for 24 hrs by UPLC-MS/MS analysis; type: ADME, organism-based; conditions: in vivo
[19] = Solubility of compound at pH 4 by reversed-phase UPLC analysis; type: physicochemical; conditions: buffer
[20] = Oral bioavailability in mouse; type: ADME, organism-based; conditions: in vivo
[21] = Cmax in Sprague-Dawley rat at 10 mg/kg, po measured for 24 hrs by UPLC-MS/MS analysis; type: ADME, organism-based; conditions: in vivo
[22] = Solubility of compound at pH 5 by reversed-phase UPLC analysis; type: physicochemical; conditions: buffer
[23] = Lipophilicity, logP of compound by HPLC analysis; type: physicochemical
[24] = Oral bioavailability in Sprague-Dawley rat at 10 mg/kg measured for 24 hrs by UPLC-MS/MS analysis; type: ADME, organism-based; conditions: in vivo
[25] = Protein binding in rat plasma assessed as free fraction; type: ADME, cell-free
[26] = Permeability of compound by PAMPA; type: ADME; conditions: read-out: permeability
[27] = Solubility of compound at pH 6.5 by reversed-phase UPLC analysis; type: physicochemical; conditions: buffer
[28] = Solubility of compound at pH 1 by reversed-phase UPLC analysis; type: physicochemical; conditions: buffer
[29] = Oral bioavailability in Famotidine-pretreated Sprague-Dawley rat at 10 mg/kg measured for 24 hrs by UPLC-MS/MS analysis; type: ADME, organism-based; conditions: in vivo
[30] = Oral bioavailability in mouse at 50 mg/kg administered as suspension; type: ADME, organism-based; conditions: in vivo
[31] = Protein binding in monkey plasma assessed as free fraction; type: ADME, cell-free, Macaca mulatta; conditions: rhesus monkey
[32] = Efflux ratio of apparent permeability across basal to apical side over apical to basal side in human Caco-2 cells; type: ADME, cell-based
[33] = Oral bioavailability in monkey; type: ADME, organism-based, Macaca mulatta; conditions: rhesus monkey, in vivo
[34] = Dissociation constant, pKa of compound; type: physicochemical
[35] = Solubility of compound in FeSSIF at pH 5 by reversed-phase UPLC analysis; type: physicochemical
[36] = Oral bioavailability in rat; type: ADME, organism-based; conditions: in vivo
[37] = Solubility of compound at pH 3 by reversed-phase UPLC analysis; type: physicochemical; conditions: buffer
[38] = Solubility of compound in FaSSIF at pH 6.5 by reversed-phase UPLC analysis; type: physicochemical
[39] = AUC (total) in Sprague-Dawley rat at 10 mg/kg, po measured for 24 hrs by UPLC-MS/MS analysis; type: ADME, organism-based; conditions: in vivo
[40] = Apparent permeability across apical to basal side in human Caco-2 cells; type: ADME, cell-based
[41] = Protein binding in human plasma assessed as free fraction; type: ADME, cell-free
[42] = Solubility of compound at pH 2 by reversed-phase UPLC analysis; type: physicochemical; conditions: buffer
[43] = Oral bioavailability in Pentagastrine-pretreated Sprague-Dawley rat at 10 mg/kg measured for 24 hrs by UPLC-MS/MS analysis; type: ADME, organism-based; conditions: in vivo
[44] = Inhibition of STAT5 phosphorylation in IFN-gamma-treated human whole blood; type: tissue-based
[45] = Tmax in Sprague-Dawley rat at 10 mg/kg, po measured for 24 hrs by UPLC-MS/MS analysis; type: ADME, organism-based; conditions: in vivo
[46] = Solubility of compound at pH 7.4 by reversed-phase UPLC analysis; type: physicochemical; conditions: buffer

[2H]C([2H])([2H])NC(=O)c1cn(COC(=O)c2ccc(COP(=O)(O)O)cc2)/c(=N/C(=O)C2CC2)cc1Nc1cccc(-c2nnn(C)n2)c1OC
half-life [1]: 334 h
solubility [2]: 1 µg/mL (≈ 1.49 µM)
solubility [3]: 1 µg/mL (≈ 1.49 µM)
half-life [4]: 130 h
half-life [5]: 334 h

CNCC(=O)OCc1cccnc1N(C)C(=O)OCn1cc(C(=O)NC)c(Nc2cccc(-c3nnn(C)n3)c2OC)c/c1=N\C(=O)C1CC1.Cl
half-life [1]: 334 h
solubility [6]: 580 µg/mL
solubility [2]: 650 µg/mL
half-life [4]: 5.7 h
half-life [5]: 72 h

[2H]C([2H])([2H])NC(=O)c1cn(COP(=O)([O-])[O-])/c(=N/C(=O)C2CC2)cc1Nc1cccc(-c2nnn(C)n2)c1OC.[Na+].[Na+]
AUC [7]: 58 µM·h
half-life [1]: > 500 h
Tmax [8]: 2.5 h
solubility [6]: 1 µg/mL
Tmax [9]: 2.1 h
solubility [2]: 10 µg/mL
Cmax [10]: 8.1 µM
solubility [3]: 1470 µg/mL
Cmax [11]: 11.6 µM
half-life [4]: 177 h
AUC [12]: 79 µM·h
half-life [5]: 376 h

Cl.[2H]C([2H])([2H])NC(=O)c1cnc(NC(=O)C2CC2)cc1Nc1cccc(-c2nnn(C)n2)c1OC
AUC at 24 h [13]: 5.5 µM·h
AUC at 24 h [14]: 53.4 µM·h
Tmax [15]: 4 h
Cmax [16]: 7.1 µM
Cmax [17]: 0.8 µM
Tmax [18]: 5.5 h

[2H]C([2H])([2H])N(COP(=O)([O-])[O-])C(=O)c1cnc(NC(=O)C2CC2)cc1Nc1cccc(-c2nnn(C)n2)c1OC.[Na+].[Na+]
solubility [3]: 2500 µg/mL
half-life [4]: 71.8 h
half-life [5]: 0.7 h

[2H]C([2H])([2H])NC(=O)c1cn(COC(=O)c2ccc(OP(=O)(O)O)c(OC)c2)/c(=N/C(=O)C2CC2)cc1Nc1cccc(-c2nnn(C)n2)c1OC
half-life [1]: > 500 h
solubility [6]: 58 µg/mL (≈ 84.6 µM)
solubility [2]: < 1 µg/mL
solubility [3]: 1000 µg/mL (≈ 1460 µM)
half-life [4]: 84 h
half-life [5]: 215 h

[2H]C([2H])([2H])NC(=O)c1cnc(NC(=O)C2CC2)cc1Nc1cccc(-c2nnn(C)n2)c1OC
AUC at 24 h [13]: 7.8 µM·h
solubility [19]: 5 µg/mL (≈ 11.8 µM)
bioavailability [20]: 100%
Cmax [21]: 4.8 µM
solubility [22]: < 1 µg/mL
logP [23]: 2.7
AUC at 24 h [14]: 46 µM·h
bioavailability [24]: 36%
fraction unbound [25]: 0.07
solubility [6]: 5 µg/mL (≈ 11.8 µM)
Papp [26]: ~60 ×10⁻⁶ cm/s
solubility [27]: < 1 µg/mL
solubility [28]: 2020 µg/mL (≈ 4750 µM)
bioavailability [29]: 15.4%
solubility [2]: 2020 µg/mL (≈ 4750 µM)
bioavailability [30]: 63%
fraction unbound [31]: 0.08
efflux ratio [32]: 8.2
bioavailability [33]: 100%
pKa [34]: 4.8
Tmax [15]: 2.5 h
solubility [35]: 57 µg/mL (≈ 134 µM)
solubility [3]: 1 µg/mL (≈ 2.35 µM)
bioavailability [36]: 50%
solubility [37]: 17 µg/mL (≈ 40 µM)
solubility [38]: 8 µg/mL (≈ 18.8 µM)
AUC at 24 h [39]: 18.4 µM·h
Cmax [16]: 8.6 µM
Papp A→B [40]: 6.7 ×10⁻⁶ cm/s
fraction unbound [41]: 0.1
solubility [42]: 1680 µg/mL (≈ 3950 µM)
bioavailability [43]: 91%
IC50 [44]: 23 nM
Cmax [17]: 0.77 µM
Tmax [18]: 0.9 h
Tmax [45]: 1.1 h
solubility [46]: < 1 µg/mL

NCCCC[C@H](N)C(=O)O.[2H]C([2H])([2H])NC(=O)c1cn(COP(=O)(O)O)/c(=N/C(=O)C2CC2)cc1Nc1cccc(-c2nnn(C)n2)c1OC
solubility [6]: 9 µg/mL
solubility [2]: 4 µg/mL
solubility [3]: 308 µg/mL

[2H]C([2H])([2H])NC(=O)c1cn(COC(=O)CC(C)(C)c2c(C)cc(C)cc2OP(=O)(O)O)/c(=N/C(=O)C2CC2)cc1Nc1cccc(-c2nnn(C)n2)c1OC
half-life [1]: 64 h
solubility [6]: 44 µg/mL (≈ 59.5 µM)
solubility [2]: 22 µg/mL (≈ 29.7 µM)
half-life [4]: 7.7 h
half-life [5]: 274 h

NC(CO)(CO)CO.[2H]C([2H])([2H])NC(=O)c1cn(COP(=O)(O)O)/c(=N/C(=O)C2CC2)cc1Nc1cccc(-c2nnn(C)n2)c1OC
solubility [6]: 2 µg/mL
solubility [2]: 1 µg/mL
solubility [3]: 141 µg/mL
